Data set [1] addresses CYP3A4-Midazolam.
Data set [2] relates to ARAF.
The subject of data set [3] is DDR1.
Data set [4] deals with T1, CYP2D6 (Homo sapiens, UniProt P10635).
T1 construct: tissue Corning 452117; host or cells: pooled human liver microsomes (UltraPool HLM 150, mixed gender)
Kind of data set: CYP inhibition assay. Conditions: human liver microsomes. The class given is in vitro ADME. A general note: Microsomes from liver hold many membrane-bound enzymes, among them those of drug oxidation.

For data set [5], the target named is GRK4 (Homo sapiens, UniProt P32298). The conditions noted are these: 1 μM; Run 1, Run 2.
Data set [6] has as its target LIMK1 (Homo sapiens, UniProt P53667). The conditions noted are these: 1 μM; Run 1, Run 2.
Data set [7] deals with T2, NEK8 (Homo sapiens, UniProt Q86SG6).
T2 sequence (Q86SG6 1-692): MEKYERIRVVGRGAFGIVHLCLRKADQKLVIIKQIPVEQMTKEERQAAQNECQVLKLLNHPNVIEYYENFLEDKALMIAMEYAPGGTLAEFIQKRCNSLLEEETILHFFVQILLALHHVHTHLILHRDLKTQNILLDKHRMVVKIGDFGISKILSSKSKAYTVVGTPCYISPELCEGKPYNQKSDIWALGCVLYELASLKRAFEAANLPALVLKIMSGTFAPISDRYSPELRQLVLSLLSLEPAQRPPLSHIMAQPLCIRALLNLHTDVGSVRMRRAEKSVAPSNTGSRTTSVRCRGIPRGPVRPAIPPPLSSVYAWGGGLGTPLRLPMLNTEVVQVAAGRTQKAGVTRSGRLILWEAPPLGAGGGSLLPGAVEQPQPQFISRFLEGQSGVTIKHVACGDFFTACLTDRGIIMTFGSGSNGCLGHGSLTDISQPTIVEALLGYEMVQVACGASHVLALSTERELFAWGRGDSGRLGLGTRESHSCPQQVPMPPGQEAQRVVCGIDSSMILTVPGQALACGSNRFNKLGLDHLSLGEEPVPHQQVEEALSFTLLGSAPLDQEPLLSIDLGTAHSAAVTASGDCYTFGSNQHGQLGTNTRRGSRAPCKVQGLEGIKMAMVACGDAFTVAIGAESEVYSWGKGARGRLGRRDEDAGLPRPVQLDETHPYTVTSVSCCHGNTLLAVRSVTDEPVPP
The conditions noted are these: 1 μM; Run 1, Run 2.

For data set [8], the target named is PKCg (Homo sapiens, UniProt P05129). Conditions: 1 μM; Run 1, Run 2.
Data set [9] concerns the target PKN2/PRK2 (Homo sapiens, UniProt Q16513). The conditions noted are these: 1 μM; Run 1, Run 2.
The target in data set [10] is TTBK1 (Homo sapiens, UniProt Q5TCY1). The conditions noted are these: 1 μM; Run 1, Run 2.
Data set [11] deals with LCK (Homo sapiens, UniProt P06239). In words: biochemical. The conditions noted are these: read-out: % enzyme activity, 1 μM; Run 1, Run 2.
In data set [12] the target is T3, SNARK/NUAK2 (Homo sapiens, UniProt Q9H093).
T3 sequence (Q9H093 1-628): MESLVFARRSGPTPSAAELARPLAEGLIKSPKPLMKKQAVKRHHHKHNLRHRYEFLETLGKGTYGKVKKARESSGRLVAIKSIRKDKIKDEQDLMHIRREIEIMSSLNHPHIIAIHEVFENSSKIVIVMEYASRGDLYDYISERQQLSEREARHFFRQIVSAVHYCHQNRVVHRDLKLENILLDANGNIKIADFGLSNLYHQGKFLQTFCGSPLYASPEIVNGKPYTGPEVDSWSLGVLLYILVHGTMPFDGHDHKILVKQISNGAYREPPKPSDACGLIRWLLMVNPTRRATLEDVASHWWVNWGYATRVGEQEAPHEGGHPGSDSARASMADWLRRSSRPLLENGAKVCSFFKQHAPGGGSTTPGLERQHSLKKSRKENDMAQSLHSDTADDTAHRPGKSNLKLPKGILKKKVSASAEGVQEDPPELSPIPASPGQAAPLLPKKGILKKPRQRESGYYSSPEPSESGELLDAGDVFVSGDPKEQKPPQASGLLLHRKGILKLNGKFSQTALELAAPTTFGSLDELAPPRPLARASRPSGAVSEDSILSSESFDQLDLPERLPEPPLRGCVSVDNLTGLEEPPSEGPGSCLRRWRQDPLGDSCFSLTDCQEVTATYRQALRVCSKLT
In words: biochemical. Conditions: read-out: % enzyme activity, 1 μM; Run 1, Run 2.

Data set [13] addresses STK21/CIT (Homo sapiens, UniProt O14578). In words: biochemical. Conditions: read-out: % enzyme activity, 1 μM; Run 1, Run 2.
Data set [14] has as its target T4, VRK1 (Homo sapiens, UniProt Q99986).
T4 sequence (Q99986 1-396): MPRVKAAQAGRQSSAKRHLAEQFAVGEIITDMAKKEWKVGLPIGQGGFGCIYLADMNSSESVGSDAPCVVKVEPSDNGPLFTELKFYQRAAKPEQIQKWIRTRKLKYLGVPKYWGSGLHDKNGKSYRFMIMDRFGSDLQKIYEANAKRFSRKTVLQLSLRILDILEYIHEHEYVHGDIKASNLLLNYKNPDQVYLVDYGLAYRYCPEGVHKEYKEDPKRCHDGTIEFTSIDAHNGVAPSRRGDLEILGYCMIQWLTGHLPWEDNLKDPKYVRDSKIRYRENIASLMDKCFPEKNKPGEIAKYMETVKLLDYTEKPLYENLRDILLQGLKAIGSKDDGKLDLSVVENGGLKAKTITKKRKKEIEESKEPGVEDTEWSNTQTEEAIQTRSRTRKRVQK
In words: biochemical. The conditions noted are these: read-out: % enzyme activity, 1 μM; Run 1, Run 2.

Each structure is given as a SMILES string. pIC50: −log10 of the molar value. “And” between values parts separate entries of the source, which are not always exact repeats. Equal values may be shown once. A value given as a limit tells only on which side of the number the result lay.

GRK4, sequence (P32298 whole entry): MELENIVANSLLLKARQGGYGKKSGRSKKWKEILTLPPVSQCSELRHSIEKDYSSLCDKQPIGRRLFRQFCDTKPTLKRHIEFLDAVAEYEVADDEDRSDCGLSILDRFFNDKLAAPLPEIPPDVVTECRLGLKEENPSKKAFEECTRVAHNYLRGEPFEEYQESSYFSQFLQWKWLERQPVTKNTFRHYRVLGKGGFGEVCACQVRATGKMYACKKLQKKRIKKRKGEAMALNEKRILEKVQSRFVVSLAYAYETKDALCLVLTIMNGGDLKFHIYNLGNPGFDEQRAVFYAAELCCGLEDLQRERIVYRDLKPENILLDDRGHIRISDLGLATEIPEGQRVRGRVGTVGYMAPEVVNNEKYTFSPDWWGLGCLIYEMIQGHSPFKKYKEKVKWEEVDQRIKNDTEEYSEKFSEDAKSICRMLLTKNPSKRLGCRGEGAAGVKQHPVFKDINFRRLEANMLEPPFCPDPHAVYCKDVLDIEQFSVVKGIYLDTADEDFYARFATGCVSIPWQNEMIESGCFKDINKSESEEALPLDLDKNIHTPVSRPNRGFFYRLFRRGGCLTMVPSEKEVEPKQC
LCK, sequence (P06239 whole entry): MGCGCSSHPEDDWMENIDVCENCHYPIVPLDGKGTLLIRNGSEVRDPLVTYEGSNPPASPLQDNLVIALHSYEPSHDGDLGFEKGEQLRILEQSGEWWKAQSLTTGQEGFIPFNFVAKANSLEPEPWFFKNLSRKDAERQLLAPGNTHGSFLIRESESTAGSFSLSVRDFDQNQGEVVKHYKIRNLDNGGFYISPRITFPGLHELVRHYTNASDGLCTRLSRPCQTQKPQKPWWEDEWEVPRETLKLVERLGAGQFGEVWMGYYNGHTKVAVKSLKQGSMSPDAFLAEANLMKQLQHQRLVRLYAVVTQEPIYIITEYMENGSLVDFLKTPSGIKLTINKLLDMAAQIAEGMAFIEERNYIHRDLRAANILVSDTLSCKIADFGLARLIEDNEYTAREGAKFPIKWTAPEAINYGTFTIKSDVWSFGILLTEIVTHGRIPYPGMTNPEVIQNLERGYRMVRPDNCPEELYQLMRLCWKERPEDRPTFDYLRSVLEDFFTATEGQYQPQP
LIMK1, sequence (P53667 whole entry): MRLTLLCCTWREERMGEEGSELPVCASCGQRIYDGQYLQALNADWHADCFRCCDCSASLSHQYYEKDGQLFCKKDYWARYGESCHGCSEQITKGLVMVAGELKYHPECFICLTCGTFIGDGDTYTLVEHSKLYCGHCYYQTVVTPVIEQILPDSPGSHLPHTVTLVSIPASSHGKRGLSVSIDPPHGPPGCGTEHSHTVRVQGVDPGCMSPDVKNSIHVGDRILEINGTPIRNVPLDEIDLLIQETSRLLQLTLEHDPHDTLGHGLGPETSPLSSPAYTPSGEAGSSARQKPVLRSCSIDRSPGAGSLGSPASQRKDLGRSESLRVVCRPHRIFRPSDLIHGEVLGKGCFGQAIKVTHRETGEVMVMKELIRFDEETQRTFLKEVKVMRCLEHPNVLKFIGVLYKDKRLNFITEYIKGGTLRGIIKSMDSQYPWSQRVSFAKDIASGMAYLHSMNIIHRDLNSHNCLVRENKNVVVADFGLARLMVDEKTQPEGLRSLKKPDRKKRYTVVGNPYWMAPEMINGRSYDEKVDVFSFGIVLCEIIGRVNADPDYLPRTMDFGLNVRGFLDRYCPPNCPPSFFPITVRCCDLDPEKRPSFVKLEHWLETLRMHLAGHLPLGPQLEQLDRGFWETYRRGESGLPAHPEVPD
PKN2/PRK2, sequence (Q16513 whole entry): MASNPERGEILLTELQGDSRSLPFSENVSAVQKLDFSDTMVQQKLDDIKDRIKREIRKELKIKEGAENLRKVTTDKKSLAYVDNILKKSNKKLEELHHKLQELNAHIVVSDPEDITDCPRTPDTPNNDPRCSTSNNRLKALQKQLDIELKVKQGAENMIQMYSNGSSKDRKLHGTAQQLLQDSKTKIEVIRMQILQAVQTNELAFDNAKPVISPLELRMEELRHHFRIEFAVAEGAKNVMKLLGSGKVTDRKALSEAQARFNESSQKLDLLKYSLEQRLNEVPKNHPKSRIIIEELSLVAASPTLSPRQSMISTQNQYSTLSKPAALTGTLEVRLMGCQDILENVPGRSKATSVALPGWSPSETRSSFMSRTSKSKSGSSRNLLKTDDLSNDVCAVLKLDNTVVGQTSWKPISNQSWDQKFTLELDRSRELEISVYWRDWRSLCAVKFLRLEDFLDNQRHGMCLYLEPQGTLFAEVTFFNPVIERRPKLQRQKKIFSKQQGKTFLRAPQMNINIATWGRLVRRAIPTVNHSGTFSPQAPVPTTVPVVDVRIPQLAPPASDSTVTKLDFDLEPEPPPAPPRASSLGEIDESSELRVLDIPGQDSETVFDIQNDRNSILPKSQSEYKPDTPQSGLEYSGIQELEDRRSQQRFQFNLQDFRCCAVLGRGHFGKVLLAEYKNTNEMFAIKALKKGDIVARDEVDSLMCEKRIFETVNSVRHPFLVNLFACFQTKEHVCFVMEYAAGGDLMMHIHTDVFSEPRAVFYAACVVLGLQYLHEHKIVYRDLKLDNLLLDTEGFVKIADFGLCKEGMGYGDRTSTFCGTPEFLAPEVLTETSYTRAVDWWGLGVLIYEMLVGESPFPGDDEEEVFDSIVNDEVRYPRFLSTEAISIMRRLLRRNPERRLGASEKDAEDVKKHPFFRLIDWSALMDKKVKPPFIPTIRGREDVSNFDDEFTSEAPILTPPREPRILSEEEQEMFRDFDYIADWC
T1 sequence (P10635 whole entry): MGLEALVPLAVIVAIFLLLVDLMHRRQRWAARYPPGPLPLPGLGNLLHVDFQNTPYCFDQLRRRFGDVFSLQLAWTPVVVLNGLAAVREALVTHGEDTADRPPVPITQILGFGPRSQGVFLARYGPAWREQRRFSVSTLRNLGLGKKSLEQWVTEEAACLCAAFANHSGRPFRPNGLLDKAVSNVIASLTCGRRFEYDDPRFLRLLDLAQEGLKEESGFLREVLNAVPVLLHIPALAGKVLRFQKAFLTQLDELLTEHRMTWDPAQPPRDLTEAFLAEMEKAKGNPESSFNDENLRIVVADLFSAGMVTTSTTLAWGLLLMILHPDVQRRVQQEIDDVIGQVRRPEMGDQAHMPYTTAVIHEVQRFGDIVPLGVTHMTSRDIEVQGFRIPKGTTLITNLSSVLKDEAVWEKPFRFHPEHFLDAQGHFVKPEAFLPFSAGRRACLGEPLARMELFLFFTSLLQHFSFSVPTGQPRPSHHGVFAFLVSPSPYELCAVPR

By pIC50 is commonly meant the negative decadic logarithm of the IC50, by convention in mol/L. The low end stands for a large IC50, the high end for a small IC50. Regarding `COc1cc(-c2cncc(-c3ccc(N4C[C@@H](C)N(C)[C@@H](C)C4)cc3)c2C)cc(F)c1C(N)=O` [Compound 26c, 2-Fluoro-6-methoxy-4-(4-methyl-5-(4-((3R,5S)-3,4,5-trimethylpiperazin-1-yl)phenyl)pyridin-3-yl)benzamide], the CYP inhibition in data set [1] is more than 50 µM. In addition, the % enzyme activity at 1 μM in data set [2] was 48.1% and 43.3%; in [3] it was 57.2% and 55.5%. In [4], this compound gave a negative logarithm of the IC50 (pIC50) of less than 4.30. The “% enzyme activity” value in data set [5] is listed as 92.15%; in data set [6], 72.63%; in data set [7], 106.54%; in [8], 96.41%; in data set [9], 95.77%; in data set [10] it was 98.52%. For the same compound, the remaining activity at 1 µM in data set [11] amounted to 101%; in [12], 94%; in data set [13], 89.1%; in data set [14] it was 102%.

For the compound `COc1cc(-c2cncc(-c3ccc(N4CCN(C)CC4)cc3)c2C)cc(F)c1C(N)=O` [Compound 26a, 2-Fluoro-6-methoxy-4-(4-methyl-5-(4-(4-methylpiperazin-1-yl)phenyl)pyridin-3-yl)benzamide], the CYP inhibition in data set [1] was more than 50 µM. The % enzyme activity at 1 μM in [2] was 29.3% and 28.8%; in data set [3], 32.1% and 31.2%. In [4], this compound had a negative-log IC50 (pIC50) of less than 4.30. Besides, the “% enzyme activity” value in [5] was 79.15%; in data set [6] it was 64.18%; in data set [7], 98.06%; in data set [8], 96.27%; in [9] it was 91.84%; in data set [10] it was 96.78%. For the same compound, the remaining activity at 1 µM was 93.2% in data set [11], 91.6% in data set [12], 88.8% in data set [13] and 104% in [14].

For the origin of these results see PMC8213057, “Targeting ALK2: An Open Science Approach to Developing Therapeutics for the Treatment of Diffuse Intrinsic Pontine Glioma” (Journal of Medicinal Chemistry, 2020).
